Columns and labels:
[1] = test system: MDA-MB-231 (human breast cancer); test: MTT cytotoxicity assay, MDA-MB-231; format: cell-based; conditions: Homo sapiens, MDA-MB-231 cells, 50% cell growth inhibition after 72 h of drug exposure
Method: (§1) The cytotoxic activities of target compounds were evaluated against HT-29 (human colon cancer), MDA-MB-231 (human breast cancer), U87MG (human glioblastoma), H460 (human lung cancer), A549 (non-small-cell lung adenocarcinoma), HL-60 (human leukemic) cancer cell lines and one normal cell line WI-38 (human fetal lung fibroblasts) together with references DHA and cisplatin by a MTT assay.
(§2) The cytotoxic activities of compounds 3a–h and 6a–j were evaluated with the HT-29, MDA-MB-231, U87MG, H460, A549, HL-60 cancer cell lines and one normal cell line, WI-38, by the standard MTT assay in vitro [20], with DHA as the positive control. The cell lines were cultured in minimum essential medium (MEM) supplement with 10% fetal bovine serum (FBS). Approximately 4 × 10^3 cells, suspended in MEM medium, were plated on to each well of a 96-well plate and incubated in 5% CO2 at 37 °C for 24 h. The test compounds at indicated final concentrations were added to the culture medium and the cell cultures were continued for 72 h. Fresh MTT was added to each well at a terminal concentration of 5 μg/mL and incubated with cells at 37 °C for 4 h. The formazan crystals were dissolved in 100 μL DMSO each well, and the absorbency at 492 nm (for absorbance of MTT formazan) and 630 nm (for the reference wavelength) was measured with the ELISA reader. All of the compounds were tested twice in each of the cell lines. The results expressed as IC50 (inhibitory concentration 50%) were the averages of two determinations and calculated using the Bacus Laboratories Incorporated Slide Scanner (Bliss) software.

[2] = test system: HT-29 (human colon cancer); test: MTT cytotoxicity assay, HT-29; format: cell-based; conditions: Homo sapiens, HT-29 cells, 50% cell growth inhibition after 72 h of drug exposure, read-out: IC50(μM) HT29
Method: as §1, §2

[3] = test system: U87MG (human glioblastoma); test: MTT cytotoxicity assay, U87MG; format: cell-based; conditions: Homo sapiens, U-87 MG; U87MG cells, 50% cell growth inhibition after 72 h of drug exposure, MTT
Method: as §1, §2

H460 (human lung cancer) = test: MTT cytotoxicity assay, H460; format: cell-based; conditions: Homo sapiens, NCI-H460; H460 cells, 50% cell growth inhibition after 72 h of drug exposure, MTT
Method: as §1, §2

[4] = test system: A549 (non-small-cell lung adenocarcinoma); test: MTT cytotoxicity assay, A549; format: cell-based, human; conditions: Homo sapiens, A549 cells, 50% cell growth inhibition after 72 h of drug exposure
Method: as §1, §2

HL-60 (human leukemic) = test: MTT cytotoxicity assay, HL-60; format: cell-based; conditions: Homo sapiens; HL-60 cells, 50% cell growth inhibition after 72 h of drug exposure, MTT
Method: as §1, §2

[5] = test system: WI-38 (human fetal lung fibroblasts); test: MTT cytotoxicity assay, normal cell line WI-38; format: cell-based; conditions: Homo sapiens, normal WI-38 cells, 50% cell growth inhibition after 72 h of drug exposure, read-out: IC50(μM) WI38
Method: as §1, §2

Work on `C[C@@H]1CC[C@H]2[C@@H](C)C(OCCNC(=O)c3ccc(COc4ccc(/C=C/S(=O)(=O)Nc5cccc(Cl)c5)cc4)cc3)O[C@@H]3O[C@@]4(C)CC[C@@H]1[C@]32OO4` (stereo partly drawn) [Compound 6b, (E)-N-(2-(10β-Dihydroartemisinoxy)ethyl)-4((4-(2-(N-(3-chlorophenyl)sulfamoyl)vinyl)phenoxy)methyl)benzamide] yielded an IC50 [1] of 2.23 µM, an IC50 [2] of 1.11 µM and an IC50 [3] of 4.52 µM. For the same molecule, the IC50 (H460 (human lung cancer)) was 2.79 µM, the IC50 [4] was 2.86 µM and the IC50 (HL-60 (human leukemic)) was 1.81 µM. The IC50 [5] was 35.8 µM and the melting point was 146 to 149 °C.
`Cc1ccccc1NS(=O)(=O)/C=C/c1ccc(OCCOC2O[C@@H]3O[C@@]4(C)CC[C@H]5[C@H](C)CC[C@@H]([C@H]2C)[C@@]35OO4)cc1` (stereo partly drawn) [Compound 3e, (E)-2-(4-(2-(10β-Dihydroartemisinoxy)ethoxy)phenyl)-N-(2-methylphenyl)ethenesulfonamide] gave an IC50 [1] of 1.64 µM, an IC50 [2] of 0.86 µM and an IC50 [3] of 2.73 µM. The IC50 (H460 (human lung cancer)) was 1.58 µM, the IC50 [4] was 7.32 µM and the IC50 (HL-60 (human leukemic)) was 2.37 µM. It also gave an IC50 [5] of 16.4 µM and a melting point of 136 to 138 °C.
Molecule `C[C@@H]1CC[C@H]2[C@@H](C)C(OCCOc3ccc(/C=C/S(=O)(=O)Nc4cccc(Cl)c4)cc3)O[C@@H]3O[C@@]4(C)CC[C@@H]1[C@]32OO4` (stereo partly drawn) [Compound 3b, (E)-2-(4-(2-(10β-Dihydroartemisinoxy)ethoxy)phenyl)-N-(3-chlorophenyl)ethenesulfonamide] has an IC50 [1] of 1.61 µM, an IC50 [2] of 0.78 µM and an IC50 [3] of 3.51 µM. It also gave an IC50 (H460 (human lung cancer)) of 7.32 µM, an IC50 [4] of 4.48 µM and an IC50 (HL-60 (human leukemic)) of 0.75 µM. It also gave an IC50 [5] of 23.9 µM and a melting point of 137 to 138 °C.
Molecule `C[C@@H]1CC[C@H]2[C@@H](C)C(OCCOc3ccc(/C=C/S(=O)(=O)Nc4ccccc4)cc3)O[C@@H]3O[C@@]4(C)CC[C@@H]1[C@]32OO4` (stereo partly drawn) [Compound 3a, (E)-2-(4-(2-(10β-Dihydroartemisinoxy)ethoxy)phenyl)-N-phenylethenesulfonamide] has an IC50 [1] of 2 µM, an IC50 [2] of 0.68 µM and an IC50 [3] of 3.97 µM. For the same molecule, the IC50 (H460 (human lung cancer)) was 5.38 µM, the IC50 [4] was 2.16 µM and the IC50 (HL-60 (human leukemic)) was 1.25 µM. The IC50 [5] was 16.8 µM and the melting point was 136 to 138 °C.
Molecule `C[C@@H]1CC[C@H]2[C@@H](C)C(OCCNC(=O)c3ccc(COc4ccc(/C=C/S(=O)(=O)Nc5ccccc5Cl)cc4)cc3)O[C@@H]3O[C@@]4(C)CC[C@@H]1[C@]32OO4` (stereo partly drawn) [Compound 6g, (E)-N-(2-(10β-Dihydroartemisinoxy)ethyl)-4((4-(2-(N-(2-chlorophenyl)sulfamoyl)vinyl)phenoxy)methyl)benzamide] has an IC50 [1] of 0.72 µM, an IC50 [2] of 0.45 µM and an IC50 [3] of 2.69 µM. For the same molecule, the IC50 (H460 (human lung cancer)) was 0.89 µM, the IC50 [4] was 5.31 µM and the IC50 (HL-60 (human leukemic)) was 0.27 µM. It also gave an IC50 [5] of 27.2 µM and a melting point of 147 to 150 °C.
With `C[C@@H]1CC[C@H]2[C@@H](C)C(OCCNC(=O)c3ccc(COc4ccc(/C=C/S(=O)(=O)Nc5ccc(Cl)cc5)cc4)cc3)O[C@@H]3O[C@@]4(C)CC[C@@H]1[C@]32OO4` (stereo partly drawn) [Compound 6f, (E)-N-(2-(10β-Dihydroartemisinoxy)ethyl)-4((4-(2-(N-(4-chlorophenyl)sulfamoyl)vinyl)phenoxy)methyl)benzamide] the IC50 [1] was 2.38 µM, the IC50 [2] was 0.92 µM and the IC50 [3] was 1.59 µM. It also gave an IC50 (H460 (human lung cancer)) of 1.77 µM, an IC50 [4] of 5.72 µM and an IC50 (HL-60 (human leukemic)) of 1.33 µM. For the same molecule, the IC50 [5] was 24.7 µM and the melting point was 138 to 141 °C.
Work on `C[C@@H]1CC[C@H]2[C@@H](C)C(OCCOc3ccc(/C=C/S(=O)(=O)Nc4ccc(Cl)cc4)cc3)O[C@@H]3O[C@@]4(C)CC[C@@H]1[C@]32OO4` (stereo partly drawn) [Compound 3f, (E)-2-(4-(2-(10β-Dihydroartemisinoxy)ethoxy)phenyl)-N-(4-chlorophenyl)ethenesulfonamide] yielded an IC50 [1] of 1.04 µM, an IC50 [2] of 0.42 µM and an IC50 [3] of 0.79 µM. The IC50 (H460 (human lung cancer)) was 1.41 µM, the IC50 [4] was 3.52 µM and the IC50 (HL-60 (human leukemic)) was 0.08 µM. For the same molecule, the IC50 [5] was 19.9 µM and the melting point was 138 to 141 °C.

From paper PMC6270595, “Synthesis and Cytotoxicity of Novel 10-Substituted Dihydroartemisinin Derivatives Containing N-Arylphenyl-ethenesulfonamide Groups” (Molecules, 2013)
